This is an account of results in patent US20050148631A1, “Amino heterocyclyl inhibitors of 11-beta-hydroxy steroid dehydrogenase type 1” (AGOURON PHARMACEUTICALS, INC., priority 2003, published 2005).

Where two headings read alike, the source gives them in different places.

Assay [1] has as its target T1, 11β-hsd-1 enzyme (Homo sapiens, UniProt P28845). The experiment in a line: 11β-hsd-1 enzyme assay, Kiapp determination (3H-cortisone to cortisol, radio-HPLC). The conditions noted are these: read-out: Ki app. Type of assay: biochemical.
Assay [2] has as its target T1, 11β-hsd-1 enzyme. Put plainly: 11β-hsd-1 enzyme assay, percentage of inhibition (3H-cortisone to cortisol, radio-HPLC). The conditions noted are these: read-out: % inh @ 0.1 uM. Type of assay: biochemical.
Assay [3] deals with healthy human volunteers. Conditions: cited from earlier work.
Assay [4] relates to normal subjects. Conditions: ingestion; cited from earlier work.

T1 sequence (P28845 whole entry, species assumed): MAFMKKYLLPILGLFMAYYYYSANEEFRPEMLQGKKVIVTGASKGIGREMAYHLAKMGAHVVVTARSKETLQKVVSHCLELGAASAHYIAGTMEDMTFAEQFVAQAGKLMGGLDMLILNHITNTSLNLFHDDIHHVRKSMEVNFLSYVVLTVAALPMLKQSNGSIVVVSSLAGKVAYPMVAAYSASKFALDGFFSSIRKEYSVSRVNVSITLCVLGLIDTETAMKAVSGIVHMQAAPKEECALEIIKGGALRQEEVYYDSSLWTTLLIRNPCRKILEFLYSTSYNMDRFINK

`CCOC(=O)Cc1cccc(NS(=O)(=O)c2cccc(Cl)c2C)n1` [Example 1, Ethyl [6-(3-Chloro-2-methyl-benzenesulfonylamino)-pyridin-2-yl]-acetate]: the Ki in assay [1] is 42 nM. In assay [2] (0.1 uM), the inhibition at 0.1 µM came to 72.3%.
With `COc1ccc(-c2ccc(S(=O)(=O)Nc3cccc(C)n3)c(C)c2)cc1OC` [Example 182], the Ki in assay [1] turned out to be 23 nM. Besides, the inhibition at 0.1 µM in assay [2] (0.1 uM) was 79%.
Regarding `Cc1cccc(NS(=O)(=O)c2ccc(-c3ccc(C#N)cc3)c(C(F)(F)F)c2)n1` [Example 285, 4′-Cyano-2-trifluoromethyl-biphenyl-4-sulfonic acid (6-methyl-pyridin-2-yl)-amide], in assay [1] (apparent Ki, 11β-hsd-1 enzyme), the Ki was 2.9 nM. The inhibition at 0.1 µM in assay [2] (compound at 0.1 uM) came to 100%.
For `Cc1cccc(NS(=O)(=O)c2ccc(-c3cccc(F)c3F)c(C)c2)n1` [Example 238], the Ki in assay [1] (apparent Ki, 11β-hsd-1 enzyme) was determined as 27 nM. Besides, the inhibition at 0.1 µM in assay [2] (compound at 0.1 uM) amounted to 82%.
Take `COc1ccc(NS(=O)(=O)c2sc3ccc(Cl)cc3c2C)nn1` [Example 68]: in assay [1], the Ki stood at 8.3 nM. In addition, the inhibition at 0.1 µM in assay [2] (0.1 uM) was determined as 100%.
Turning to `Cc1cccc(NS(=O)(=O)c2ccc(-c3cc(Cl)cc(Cl)c3)c(C)c2)n1` [Example 222], the Ki in assay [1] (apparent Ki, 11β-hsd-1 enzyme) is 10 nM. Besides, the inhibition at 0.1 µM in assay [2] (compound at 0.1 uM) came to 90%.
As to `Cc1cccc(NS(=O)(=O)c2ccc(-c3ccc(F)cc3F)cc2C)n1` [Example 179], in assay [1], the Ki is 6.2 nM. Further, in assay [2] (0.1 uM), the inhibition at 0.1 µM is 95%.
With `COc1ccc(-c2ccc(S(=O)(=O)Nc3cccc(C)n3)cc2C)cc1` [Example 216], in assay [1] (apparent Ki, 11β-hsd-1 enzyme), the Ki is 43 nM. In addition, the inhibition at 0.1 µM in assay [2] (compound at 0.1 uM) is 73%.
On the same counts, the results for `Cc1ccc(-c2ccc(S(=O)(=O)Nc3cccc(C)n3)cc2C)cc1` [Example 215] are 16 nM and 90%.
As to `N#Cc1ccc(C2CCN(S(=O)(=O)Nc3ccc4ccccc4n3)CC2)cc1` [Example 308], in assay [1] (apparent Ki, 11β-hsd-1 enzyme), the Ki is below 1 nM. For the same compound, in assay [2] (compound at 0.1 uM), the inhibition at 0.1 µM was determined as 95.7%.
Regarding `CCN(CC)C(=O)Cc1cccc(NS(=O)(=O)c2ccc3ccccc3c2)n1` [Example 22], the Ki in assay [1] amounted to 170 nM. The inhibition at 0.1 µM in assay [2] (0.1 uM) is 44.7%.
Taken in the same sequence, the figures for `CCOC(=O)Cc1cccc(NS(=O)(=O)c2sc3ccc(Cl)cc3c2C)n1` [Example 6] were 2.8 nM and 100%.
On to `Cc1cccc(NS(=O)(=O)c2ccc(-c3ccccc3Cl)c(C)c2)n1` [Example 212], for which, in assay [1] (apparent Ki, 11β-hsd-1 enzyme), the Ki was 47 nM. Besides, in assay [2] (compound at 0.1 uM), the inhibition at 0.1 µM is 75%.
Take `Cc1cccc(NS(=O)(=O)c2ccc(-c3cccc(F)c3)cc2C)n1` [Example 173]: the Ki in assay [1] came to 9.6 nM. Moreover, the inhibition at 0.1 µM in assay [2] (0.1 uM) was 97%.
As for `CCOc1ccc(-c2ccc(S(=O)(=O)Nc3cccc(C)n3)cc2)c(C)c1` [Example 254], the Ki in assay [1] (apparent Ki, 11β-hsd-1 enzyme) came out at 22.4 nM. Besides, in assay [2] (compound at 0.1 uM), the inhibition at 0.1 µM was determined as 85.4%.
`Cc1cccc(NS(=O)(=O)c2ccc(-c3cccc(C)c3C)cc2C)n1` [Example 197]: the Ki in assay [1] (apparent Ki, 11β-hsd-1 enzyme) was found to be 29 nM. In addition, the inhibition at 0.1 µM in assay [2] (compound at 0.1 uM) was 89%.
Taken in the same sequence, the figures for `Cc1cccc(NS(=O)(=O)c2ccc(-c3ccc(Cl)cc3)c(C)c2)n1` [Example 217] were 5 nM and 95%.
On the same counts, the results for `O=S(=O)(Nc1ccc2ccccc2n1)N1CCC(c2ccccn2)CC1` [Example 316] are 67 nM and 67.4%.
Turning to `CCN(CC)C(=O)Cc1cccc(NS(=O)(=O)c2sc3ccc(Cl)cc3c2C)n1` [Example 19, 2-[6-(5-Chloro-3-methyl-benzo[b]thiophene-2-sulfonylamino)-pyridin-2-yl]-N,N-diethyl-acetamide], the Ki in assay [1] is 4.8 nM. In addition, in assay [2] (0.1 uM), the inhibition at 0.1 µM was 96.9%.
On the same counts, the results for `Cc1cccc(NS(=O)(=O)c2ccc(-c3ccccc3O)cc2C)n1` [Example 181] are 53 nM and 83%.
On the same counts, the results for `COc1cccc(-c2ccc(S(=O)(=O)Nc3cccc(C)n3)cc2)c1` [Example 160] are 36.2 nM and 66.8%.
Consider `CC1(C)[C@@H](OC(=O)CCC(=O)O)CC[C@]2(C)[C@H]3C(=O)C=C4[C@@H]5C[C@@](C)(C(=O)O)CC[C@]5(C)CC[C@@]4(C)[C@]3(C)CC[C@@H]12` [carbenoxolone], for which the hepatic insulin sensitivity result in assay [3] was “improved”. In assay [4], the “reduction of intraocular pressure” value is reported as 20%.
As to `Cc1cccc(NS(=O)(=O)c2sc3ccc(C#N)cc3c2C)n1` [Example 295, 5-Cyano-3-methyl-benzo[b]thiophene-2-sulfonic acid (6-methyl-pyridin-2-yl)-amide], the Ki in assay [1] (apparent Ki, 11β-hsd-1 enzyme) worked out at 2.3 nM. Further, the inhibition at 0.1 µM in assay [2] (compound at 0.1 uM) came to 100%.
For the compound `CCc1cccc(NS(=O)(=O)c2sc(-c3ccc(C#N)cc3)nc2C)n1` [Example 119], the Ki in assay [1] worked out at 3.1 nM. Further, the inhibition at 0.1 µM in assay [2] (0.1 uM) was determined as 95%.
